Assay results reported in US5134138A, “Phenacylpyridiniothiocephalosporins” (Shionogi & Co., Ltd., priority 1989, dated 1992).
Values after ≈ are worked out from the molar mass of the structure shown. Read-outs that look alike come from different tables or passages of the source. One block for each molecule: values may come before it.

Columns and labels:
[1] = system: Pseudomonas aeruginosa SR 24; test: minimal inhibitory concentration (agar plate two-fold dilution), Pseudomonas aeruginosa SR 24; format: cell-based
Description: (§1) 3) The said sodium salt (1 g) prepared by neutralizing under sterile condition is dissolved in distilled water for injection (4 g) and administered to a patient suffering from sensitive pseudomonal bacteria twice a day intravenously to treat this infection. The free acid or sodium salt is dissolved in 0.01N-aqueous sodium hydrogen carbonate and tested for minimal inhibitory concentration against gram-negative bacteria according to a method of Japan Society of Chemotherapy on an agar plate by two-fold dilution method.
The minimal inhibitory concentration of Compound (I) where R^1 is 2-(2-amino-4-thiazolyl)-2-(1-carboxy-1-methylethoxyimino)acetamido, R^2 is hydrogen, R^3 is hydrogen, R^4 is 3,4-dihydroxyphenyl, R^5 is methylene, R^6 combined with Y- is negative charge, and X is sulfur against Pseudomonas aeruginosa SR 24 is 0.2 μg/ml. By altering the groups with the following ones to vary the activities as listed below.

[2] = system: Pseudomonas aeruginosa SR 24; test: 50% effective dose preventing lethal Pseudomonas aeruginosa SR 24 mouse infection; format: in vivo
Description: (§2) The compound is highly safe in the case of intravenous injection to various animals.

[3] = system: Pseudomonas aeruginosa SR 5018; test: minimal inhibitory concentration (agar plate two-fold dilution), ofloxacin resistant Pseudomonas aeruginosa SR 5018; format: cell-based; settings: SR5018
Description: as §1

[4] = system: Escherichia coli SR 5082; test: minimal inhibitory concentration (agar plate two-fold dilution), Escherichia coli SR 5082; format: cell-based; settings: SR5082
Description: as §1

[5] = system: various animals; test: safety, intravenous injection to various animals; format: in vivo
Description: as §2

[6] = system: rabbits; format: in vivo; settings: up to 1 g/kg
Description: as §2

[7] = system: mice; test: safety, intravenous injection in mice; format: in vivo; settings: up to 1 g/kg
Description: as §2

[8] = SR24, Pseudomonas aeruginosa SR 24, Experiment 1, read-out: minimal inhibitory concentration
[9] = ofloxacin resistant Pseudomonas aeruginosa SR 5018, read-out: MIC

Structure (SMILES): CC(C)(ON=C(C(=O)N[C@@H]1C(=O)N2C(C(=O)[O-])=C(CSc3cc[n+](CC(=O)c4ccc(O)c(O)c4)cc3)CS[C@H]12)c1csc(N)n1)C(=O)O [No. 8]
MIC [1, 8]: 0.2 µg/mL (≈ 0.274 µM)
ED50 ([2]; Pseudomonas aeruginosa, SR24, read-out: ED50 (50% effective dose preventing lethal infection), Pseudomonas aeruginosa SR 24, mouse infection): 1.35 to 6.27 mg/kg

Structure (SMILES): CC(C)(ON=C(C(=O)N[C@@H]1C(=O)N2C(C(=O)[O-])=C(CSc3cc[n+](CC(=O)c4cccc(O)c4O)cc3)CS[C@H]12)c1csc(N)n1)C(=O)O [No. 7]
MIC [1, 8]: 0.39 µg/mL (≈ 0.535 µM)

Structure (SMILES): CON=C(C(=O)N[C@@H]1C(=O)N2C(C(=O)[O-])=C(C[N+]34CCC(C(N)=O)(CC3)CC4)CS[C@H]12)c1nsc(N)n1 [E-1040, 3-(4-carbamoylquinuclidinio)methyl-7β-[2-(5-amino-1,2,4-thiadiazol-3-yl)-2-methoxyimino]-acetamido-3-cephem-4-carboxylate, reference compound]
MIC ([3]; Pseudomonas aeruginosa): 6.3 µg/mL (≈ 11.4 µM)

Structure (SMILES): CON=C(C(=O)N[C@@H]1C(=O)N2C(C(=O)[O-])=C(CSc3cc[n+](CC(=O)c4ccc(O)c(O)c4)cc3)CS[C@H]12)c1csc(N)n1 [No. 5]
MIC [1, 8]: 0.4 µg/mL (≈ 0.609 µM)

Structure (SMILES): CC(=O)Oc1ccc(C(=O)C[n+]2ccc(SCC3=C(C(=O)[O-])N4C(=O)[C@@H](NC(=O)C(=NOC(C)(C)C(=O)O)c5csc(N)n5)[C@H]4SC3)cc2)cc1OC(C)=O [No. 11]
MIC [1, 8]: 0.025 µg/mL (≈ 0.0308 µM)

Structure (SMILES): CC(C)(ON=C(C(=O)N[C@@H]1C(=O)N2C(C(=O)[O-])=C(C[n+]3ccc4cc(O)c(O)cc4c3)CS[C@H]12)c1csc(N)n1)C(=O)O [BO-1341, 3-(6,7-dihydroxyisoquinolinio)methyl-7β-(2-(2-aminothiazol-4-yl)-2-(1-carboxy-1-methylethoxyimino)acetamido)-3-cephem-4-carboxylate, reference compound]
MIC [3, 9]: 0.4 µg/mL (≈ 0.636 µM)
MIC [4]: 1.6 µg/mL (≈ 2.55 µM)

Structure (SMILES): CC(C)(ON=C(C(=O)N[C@@H]1C(=O)N2C(C(=O)[O-])=C(CSc3cc[n+](CC(=O)c4ccc(O)c(O)c4)cc3)C[S+]([O-])[C@H]12)c1csc(N)n1)C(=O)O (some centres unmarked) [No. 9]
safety [5]: highly safe
times activity versus E-1040 (MIC) ([3]; Pseudomonas aeruginosa): 63 times
times activity versus ceftazidime (MIC) ([3]; Pseudomonas aeruginosa): 250 times
MIC [3, 9]: 0.1 µg/mL (≈ 0.134 µM)
renal toxicity [6]: did not show renal toxicity
MIC [4]: 0.2 µg/mL (≈ 0.269 µM)
MIC ([1]; Pseudomonas aeruginosa SR 24, listed as representative compound (I)): 0.1 µg/mL (≈ 0.134 µM)
MIC [1, 8]: 0.1 µg/mL (≈ 0.134 µM)
MIC ([1]; SR24, Pseudomonas aeruginosa SR 24, read-out: MIC): 0.1 µg/mL (≈ 0.134 µM)
ED50 (50% effective dose preventing lethal infection) ([2]; Pseudomonas aeruginosa SR 24, mouse infection, listed as Compound (I) where X is sulfinyl): 1.35 mg/kg
death [7]: no death
toxic effect as Antabuse-like activity [7]: no death nor toxic effect as Antabuse-like activity

Structure (SMILES): O=C(Cc1ccccc1)N[C@@H]1C(=O)N2C(C(=O)[O-])=C(CSc3cc[n+](CC(=O)c4ccc(O)c(O)c4)cc3)CS[C@H]12 [No. 1]
MIC [1, 8]: > 100 µg/mL

Structure (SMILES): CC(C)(O/N=C(\C(=O)N[C@@H]1C(=O)N2C(C(=O)[O-])=C(C[n+]3ccccc3)CS[C@H]12)c1csc(N)n1)C(=O)O [ceftazidime, reference compound]
MIC ([3]; Pseudomonas aeruginosa): 25 µg/mL (≈ 45.7 µM)

Next, values leading:

MIC [1, 8]: 0.025 µg/mL (≈ 0.0328 µM)
Structure (SMILES): CC(C)(ON=C(C(=O)N[C@@H]1C(=O)N2C(C(=O)[O-])=C(CSc3cc[n+](CC(=O)c4cc(O)c(O)cc4Cl)cc3)CS[C@H]12)c1csc(N)n1)C(=O)O [No. 22 (3,4-OH-6-Cl)]

MIC [1, 8]: 0.025 µg/mL (≈ 0.0337 µM)
Structure (SMILES): CC(C(=O)c1ccc(O)c(O)c1)[n+]1ccc(SCC2=C(C(=O)[O-])N3C(=O)[C@@H](NC(=O)C(=NOC(C)(C)C(=O)O)c4csc(N)n4)[C@H]3SC2)cc1 (some centres unmarked) [No. 23]

MIC [1, 8]: 0.2 µg/mL (≈ 0.281 µM)
Structure (SMILES): CC(C)(ON=C(C(=O)N[C@@H]1C(=O)N2C(C(=O)[O-])=C(CSc3cc[n+](CC(=O)c4ccc(O)c(O)c4)cc3)CO[C@H]12)c1csc(N)n1)C(=O)O [No. 13]

MIC [1, 8]: 0.025 µg/mL (≈ 0.0328 µM)
Structure (SMILES): CC(C)(ON=C(C(=O)N[C@@H]1C(=O)N2C(C(=O)[O-])=C(CSc3cc[n+](CC(=O)c4cc(O)c(O)c(Cl)c4)cc3)CS[C@H]12)c1csc(N)n1)C(=O)O [No. 18]

MIC [1, 8]: 0.05 µg/mL (≈ 0.065 µM)
Structure (SMILES): CC(C)(ON=C(C(=O)N[C@@H]1C(=O)N2C(C(=O)[O-])=C(CSc3cc[n+](CC(=O)c4ccc(O)c(O)c4)c4c3CCC4)CS[C@H]12)c1csc(N)n1)C(=O)O [No. 25]

MIC [1, 8]: 0.05 µg/mL (≈ 0.0673 µM)
Structure (SMILES): Cc1cc(O)c(O)cc1C(=O)C[n+]1ccc(SCC2=C(C(=O)[O-])N3C(=O)[C@@H](NC(=O)C(=NOC(C)(C)C(=O)O)c4csc(N)n4)[C@H]3SC2)cc1 [No. 14]

MIC [1, 8]: 0.1 µg/mL (≈ 0.14 µM)
Structure (SMILES): CC(C)(C=C(C(=O)N[C@@H]1C(=O)N2C(C(=O)[O-])=C(CSc3cc[n+](CC(=O)c4ccc(O)c(O)c4)cc3)CS[C@H]12)c1csc(N)n1)C(=O)O [No. 27]
